According to US9289505B2, “Compositions and methods for delivering nucleic acid molecules and treating cancer” (Rutgers, The State University of New Jersey, priority 2010, dated 2016):
d = 2'-deoxy (DNA); r = 2'-OH (RNA)

Experiments:
[1] = system: A549 human lung cancer cells; assay: Cellular internalization of FAM-labelled siRNA; assay type: cell-based; conditions: 24 hours, siRNA 0.25 μM, fluorescence microscopy
Description: Prior to the visualization, A549 cells were plated (20,000 cells per well) in a 6-well tissue culture plate. The cells were treated within 24 hours with the siRNA complex prepared with different generations of PPI dendrimer. The treatment of the A549 cells was performed in such a manner that the final concentration of siRNA was 0.25 μM and the concentrations of PPI G2, G3, G4, and G5 dendrimers were 3.15 μM, 1.58 μM, 0.79 μM, and 0.39 μM, respectively. After 24 hours of treatment, the cells were washed three times with Phosphate Buffered Saline (PBS) and 1 mL of media was added to each well. Cellular internalization of siRNA-dendrimer complexes were analyzed by fluorescent (Olympus America Inc., Melville, N.Y.) and confocal (Leica Microsystems Inc., Bannockburn, Ill.) microscopes. To obtain intracellular distribution of siRNA, ten optical sections, known as a z-series, were photographed sequentially, by confocal microscope, along the vertical (z) axis from the top to the bottom of the cell. The obtained fluorescent images were digitally scanned and fluorescence inside cells (reflecting intracellular accumulation of labelled siRNA) was expressed in arbitrary units.

[2] = system: A2780 human ovarian cancer cells; assay: Cellular uptake of fluorophore labeled siRNA, confocal microscopy; assay type: cell-based; conditions: living cells
Description: Cellular uptake and intracellular localization of siRNA was investigated using a confocal microscopy. In this experiment, living cancer cells were incubated with fluorophore labeled naked siRNA (siGLO® Red, red fluorescence) and siRNA complexed with cationic nanocarrier PAMAM-PEG-PLL (N/P=3). Cellular uptake studied substances was monitored in living cells placed in a chamber at 37° C. within 1 hour. Cellular localization of siRNA was examined on fixed and washed cells after the incubation for 24 hours with the substances. Fluorescence and its distribution within the cell were examined using a confocal microscope.

BCL2 mRNA = assay: BCL2 gene silencing by siRNA-dendrimer complexes, RT-PCR; assay type: cell-based, human; conditions: A549 cells, 24 hours incubation
Description: Quantitative reverse transcription-polymerase chain reaction (RT-PCR) was used for the analysis of expression of genes encoding BCL2 protein and β2-microglobulin (internal standard) as previously described (Pakunlu et al. (2003) Pharm. Res., 20:351-359). RNA was isolated after 24 hours incubation of cancer cells with siRNA-dendrimer complexes, using an RNeasy kit (Qiagen, Valencia, Calif.). First strand complementary DNA (cDNA) was synthesized by Ready-To-Go You-Prime First-Strand Beads (Amersham Biosciences, Piscataway, N.J.) with […] of total cellular RNA and 100 ng of random hexadeoxynucleotide primer (Amersham Bioscience, Piscataway, N.J.). After synthesis, the reaction mixture was immediately subjected to PCR, which was carried out using GenAmp® PCR System 2400 (Perkin-Elmer, Shelton, Conn.). The following pairs of primers were used: BCL2-GGATTGTGGCCTTCTTTGAG (sense; SEQ ID NO: 6), CCAAACTGAGCAGAGTCTTC (antisense; SEQ ID NO: 7); β2-microglobulin (β2-m)-ACCCCCACTGAAAAAGATGA (sense; SEQ ID NO: 8), ATCTTCAAACCTCCATGATG (antisense; SEQ ID NO: 9). […] Gene expression was calculated as the ratio of mean band intensity of analyzed RT-PCR product (BCL2) to that of the internal standard (β2-m). […]

[3] = Serum stability of siRNA and PAMAM-PEG-PLL-siRNA complex; assay type: in vitro ADME; conditions: 50% human serum, 37° C.
Description: Serum stabilities of naked siRNA and siRNA complexed with PAMAM-PEG-PLL nanocarrier were investigated by incubating siRNA or PAMAM-PEG-PLL-siRNA complex in 50% human serum at 37° C. Ten samples were prepared by mixing siRNA (30 nmol) in water with PAMAM-PEG-PLL (74.8 nmol, N/P=3) solution in water and separately incubated for 30 minutes at room temperature. In the case of naked siRNA, equal volume of RNAase free water was used instead of nanocarrier. To each of these samples 50% human plasma was added (final siRNA concentration was 1.43 nM) and incubated at 37° C. Samples were removed at an indicated time intervals (0, 0.25, 0.5, 0.75, 1, 3, 6, 12, 24 and 50 hours) and analyzed using a gel electrophoresis (4% agarose gel at 100 V for 50 minutes) in Tris-Borate-EDTA buffer containing EtBr. siRNA bands on the gel were visualized under ultraviolet light. PAMAM-PEG-PLL-siRNA samples were pre-treated with polymethacrylic acid to release free siRNA from cationic nanocarriers. 100 μL of polymethacrylic acid solution (4 μM) was added to the complexes (triblock nanocarrier/siRNA=3) and incubated at 37° C. with 50% human plasma. The released siRNA was then analyzed by a gel electrophoresis.

BCL2 gene = BCL2 gene expression, RT-PCR; assay type: cell-based, human; conditions: A2780 cells, BCL2 siRNA 1 μM delivered by the named carrier, 24 hours
Description: Reverse transcription-polymerase chain reaction (RT-PCR) was used for the analysis of gene expression (Pakunlu et al. (2004) Cancer Res., 64:6214-6224). […] After 24 hours, total cellular RNA was isolated using an RNeasy kit (Qiagen, Valencia, Calif.). […] After synthesis, the reaction mixture was immediately subjected to polymerase chain reaction (PCR), which was carried out using […] System 2400 (Perkin-Elmer, Shelton, Conn.). β2-microglobulin (β2-m) was used as an internal standard. The following pairs of primers were used: BCL2: [NT] (sense; SEQ ID NO: 6), [NT] (antisense; SEQ ID NO: 7); β2-m (internal […] (sense; SEQ ID NO: 8), [NT] (antisense; SEQ ID NO: 9). PCR regimen was as follows: 94° C. for 5 minutes; 94° C. for 1 minute, 55° C. for 1 minute, and 72° C. for 1 minute for 41 cycles; and 60° C. for 10 minutes. PCR products were separated in 4% NuSieve 3:1 Reliant-agarose gels (Lonza, Basel, Switzerland) in 1× Tris-borate EDTA buffer [0.089 mol/L Tris-borate, 0.002 mol/L EDTA (pH 8.3); Research Organics Inc., Cleveland, Ohio] by submarine electrophoresis. The gels were stained with EtBr and digitally photographed.

[4] = system: subcutaneous tumor xenografts of human A549 cancer cells; assay: Antitumor activity in subcutaneous A549 xenografts; conditions: intratumoral 3 times within 10 days
Description: NCR nude mice (female, 6 weeks, 20 g) were purchased from Taconic Farms, Inc. (Germantown, N.Y.). […] Briefly, A549 human cancer cells transfected with luciferase (5×10^6) were subcutaneously transplanted into the flanks of female athymic nu/nu mice. According to the approved institutional animal use protocol, the tumors were measured by a caliper every other day and their volumes were calculated as d^2×D/2 where d and D are the shortest and longest diameter of the tumor in mm, respectively. When the tumor reached a mean size of 50 mm^3, mice were divided into seven groups and injected intratumorally 3 times within 10 days with 150 μL of the following formulations: (1) saline (control); (2) free non-bound LHRH; (3) free non-bound siRNA; (4) free non-bound CIS; (5) Mixture of CIS and SPIO-PPI G5; (6) Mixture of CIS and SPIO-PPI G5-siRNA; and (7) Mixture of CIS and SPIO-PPI G5-siRNA-PEG-LHRH complexes. The concentrations of CIS and siRNA in the formulations were 2.5 mg/kg and 30 μM, respectively. Changes in tumor size were monitored by real-time bioluminescence in anesthetized animals by IVIS imaging system (Xenogen Bioscience, Cranbury, N.J.).

5′-GUGAAGUCAACAUGCCUGC-dTdT-3′ (sense strand; SEQ ID NO: 4) and 5′-GCAGGCAUGUUGACUUCAC-dTdT-3′ (antisense strand; SEQ ID NO: 5) (sense GUGAAGUCAACAUGCCUGCTT; antisense GCAGGCAUGUUGACUUCACTT; sugars from the 5' end r19 d2, backbone not given here) [naked siRNA]
siRNA cellular internalization [1]: not internalized by the cells | cellular uptake of siRNA [2]: did not penetrate the cancer cells | BCL2 gene knockdown (BCL2 mRNA): Gene silencing was not observed | incubation time after which siRNA started to degrade [3]: 1 h | expression of targeted BCL2 gene, from control value (BCL2 gene): did not influenced | tumor growth / antitumor activity [4]: did not significantly influence the growth of the tumor
